Test results as given in the supplement of paper PMC11451515.

Tested on: P12-Ichikawa
Experiment: cell viability relative to DMSO control; higher = less cytotoxic
Conditions: 48 h
How it was run: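 Viability was expressed as a per-plate percentage of DMSO wells, with cell-free wells as background. Leukemia cells (NOMO1 or SEM at 500 cells/well, P12-Ichikawa at 1000 cells/well) were adapted for at least four passages in each medium and seeded in 1536-well plates (5 μl). Library compounds in DMSO were pin-dosed over an 11-point threefold series from 47 μM to 0.79 nM, and CellTiter-Glo One luminescence was read after 48 h at 37°C.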

[1] = HPLM + 10% dialyzed FBS, 0.000781 µM
[2] = HPLM + 10% dialyzed FBS, 0.00234 µM
[3] = HPLM + 10% dialyzed FBS, 0.00702 µM
[4] = HPLM + 10% dialyzed FBS, 0.0211 µM
[5] = HPLM + 10% dialyzed FBS, 0.0632 µM
[6] = HPLM + 10% dialyzed FBS, 0.19 µM
[7] = HPLM + 10% dialyzed FBS, 0.569 µM
[8] = HPLM + 10% dialyzed FBS, 1.71 µM
[9] = HPLM + 10% dialyzed FBS, 5.12 µM
[10] = HPLM + 10% dialyzed FBS, 15.4 µM
[11] = HPLM + 10% dialyzed FBS, 46.1 µM
[12] = RPMI 5 mM glucose + 10% FBS, 0.000781 µM
[13] = RPMI 5 mM glucose + 10% FBS, 0.00234 µM
[14] = RPMI 5 mM glucose + 10% FBS, 0.00702 µM
[15] = RPMI 5 mM glucose + 10% FBS, 0.0211 µM
[16] = RPMI 5 mM glucose + 10% FBS, 0.0632 µM
[17] = RPMI 5 mM glucose + 10% FBS, 0.19 µM
[18] = RPMI 5 mM glucose + 10% FBS, 0.569 µM
[19] = RPMI 5 mM glucose + 10% FBS, 1.71 µM
[20] = RPMI 5 mM glucose + 10% FBS, 5.12 µM
[21] = RPMI 5 mM glucose + 10% FBS, 15.4 µM
[22] = RPMI 5 mM glucose + 10% FBS, 46.1 µM
[23] = RPMI 5 mM glucose + 10% dialyzed FBS, 0.000781 µM
[24] = RPMI 5 mM glucose + 10% dialyzed FBS, 0.00234 µM
[25] = RPMI 5 mM glucose + 10% dialyzed FBS, 0.00702 µM
[26] = RPMI 5 mM glucose + 10% dialyzed FBS, 0.0211 µM
[27] = RPMI 5 mM glucose + 10% dialyzed FBS, 0.0632 µM
[28] = RPMI 5 mM glucose + 10% dialyzed FBS, 0.19 µM
[29] = RPMI 5 mM glucose + 10% dialyzed FBS, 0.569 µM
[30] = RPMI 5 mM glucose + 10% dialyzed FBS, 1.71 µM
[31] = RPMI 5 mM glucose + 10% dialyzed FBS, 5.12 µM
[32] = RPMI 5 mM glucose + 10% dialyzed FBS, 15.4 µM
[33] = RPMI 5 mM glucose + 10% dialyzed FBS, 46.1 µM

| Structure (SMILES) | cell viability [1] | cell viability [2] | cell viability [3] | cell viability [4] | cell viability [5] | cell viability [6] | cell viability [7] | cell viability [8] | cell viability [9] | cell viability [10] | cell viability [11] | cell viability [12] | cell viability [13] | cell viability [14] | cell viability [15] | cell viability [16] | cell viability [17] | cell viability [18] | cell viability [19] | cell viability [20] | cell viability [21] | cell viability [22] | cell viability [23] | cell viability [24] | cell viability [25] | cell viability [26] | cell viability [27] | cell viability [28] | cell viability [29] | cell viability [30] | cell viability [31] | cell viability [32] | cell viability [33] |
| --- | --- | --- | --- | --- | --- | --- | --- | --- | --- | --- | --- | --- | --- | --- | --- | --- | --- | --- | --- | --- | --- | --- | --- | --- | --- | --- | --- | --- | --- | --- | --- | --- | --- |
| CC(C)(C)OC(=O)N[C@H]1CCCCC/C=C\[C@@H]2C[C@@]2(C(=O)N[S+](=O)([O-])C2CC2)NC(=O)[C@@H]2C[C@@H](OC(=O)N3Cc4cccc(F)c4C3)CN2C1=O | 108% | 114% | 108% | 109% | 112% | 114% | 115% | 111% | 108% | 104% | 87.1% | 110% | 108% | 110% | 108% | 114% | 112% | 125% | 114% | 113% | 104% | 82.1% | 95.2% | 104% | 117% | 94.3% | 105% | 104% | 112% | 106% | 94.2% | 89.3% | 80.5% |
| C[C@@H]1COCCN1c1cc(C2([S@+](C)(=N)[O-])CC2)nc(-c2ccnc3[nH]ccc23)n1 | 99.7% | 103% | 106% | 110% | 110% | 109% | 99.8% | 92.3% | 47.5% | 15.7% | 7.87% | 104% | 105% | 118% | 114% | 109% | 114% | 104% | 90.7% | 55% | 19.7% | 7.94% | 99.4% | 110% | 117% | 113% | 123% | 128% | 109% | 84.7% | 40.8% | 16.5% | 8.66% |
